Columns and labels:
washed human platelets = experiment: Aggregation of washed human platelets (stimulus 1 μM U46619); format: cell-based; details: Platelet; aspirin-treated washed human platelets; compound added 2 min before 1 μM U46619; assessed 4 min after stimulus; 37° C.
Description: METHOD FOR MEASUREMENT OF AGGREGATION OF WASHED HUMAN PLATELETS
Platelets were prepared from freshly drawn human blood. Blood was collected into acid citrate anticoagulant, centrifuged (5 min at 500 g), and the upper layer of platelet-rich plasma was removed. This platelet-rich plasma was incubated with aspirin (100 μM) for 10 min at 37° C. and then centrifuged (15 min at 200 g). The platelet pellet was resuspended (at approx. 1.5×10^8 cells/ml) in medium containing NaCl (145 mM), KCl (5 mM), MgCl2 (1 mM), CaCl2 (0.2 mM), Hepes (10 mM, ph 7.4 at 37° C.), glucose (10 mM), apyrase (10 μg/ml). Aggregation was monitored (as a change in optical density) at 37° C. in a 4 channel aggregometer (PAP-4 from Biodata Corp.). Fibrinogen (1 mg/ml) and CaCl2 (1 mM) were added to aliquots of platelets that were continuously stirred. The test compound (or 0.1% DMSO vehicle) was added 2 min before the aggregatory stimulus (1 μM U46619). The extent of aggregation was assessed 4 min after addition of the stimulus, and was calculated as % of the control response in the absence of test compound. Dose-response curves were constructed for measurement of IC50 values for each compound.

[1] = biological target: T1, [^3 H]iloprost binding to human platelet membranes (Homo sapiens, UniProt P43119); experiment: Inhibition of [^3 H]iloprost binding to human platelet membranes; details: [^3 H]iloprost 10 nM; pH 7.4; 30 min at 37° C.; calculated from IC50 for displacement
T1 construct: Membranes were prepared from outdated platelet-rich plasma concentrates obtained from the Blood Transfusion Service; from tissue; host or cells: human platelets (outdated platelet-rich plasma concentrates from the Blood Transfusion Service)
T1 sequence (P43119 whole entry, the tested form may be a part): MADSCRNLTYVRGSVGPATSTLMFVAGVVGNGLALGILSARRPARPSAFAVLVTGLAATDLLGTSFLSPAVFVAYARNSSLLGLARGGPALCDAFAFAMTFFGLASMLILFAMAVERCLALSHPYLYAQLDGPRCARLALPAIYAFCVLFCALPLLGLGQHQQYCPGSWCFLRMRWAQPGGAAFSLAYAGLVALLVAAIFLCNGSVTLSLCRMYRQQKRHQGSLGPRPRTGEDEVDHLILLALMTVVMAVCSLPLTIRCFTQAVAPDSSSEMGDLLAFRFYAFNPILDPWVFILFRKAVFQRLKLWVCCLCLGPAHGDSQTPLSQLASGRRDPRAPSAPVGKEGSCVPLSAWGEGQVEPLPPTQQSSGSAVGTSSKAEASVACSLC
Description: METHOD FOR MEASUREMENT OF KI FOR INHIBITION OF [^3 H]ILOPROST BINDING TO HUMAN PLATELET MEMBRANES
Membranes were prepared from outdated platelet-rich plasma concentrates obtained from the Blood Transfusion Service. The platelets were homogenised in buffer containing Tris-Cl (5 mM, pH 7.4 at 20° C.) and EDTA (0.25 mM), and then centrifuged (10 min at 26,000 g). The membrane pellet was washed twice by homogenisation in buffer containing Tris-Cl (50 mM, pH 7.4 at 20° C.) and EDTA (0.25 mM), followed by centrifugation. For measurement of [^3 H]iloprost binding, membranes (0.4-0.8 mg) were incubated in the presence of Tris-Cl (50 mM, pH 7.4 at 20° C.), MgCl2 (4 mM), EDTA (40 μM), […] (10 nM), DMSO (1.85%), and varying concentrations of the test compounds. For determination of non-specific binding, 20 μM iloprost was included. The tubes (triplicates for each condition) were set up on ice, and then incubated for 30 min at 37° C. The incubations were terminated by rapid filtration on Whatman GF/B filters using a Brandel Harvester. The filters were washed and then counted for radioactivity. The Ki of the test compounds for inhibition of binding of [^3 H] iloprost to human platelet membranes was calculated from the IC50 for displacement of [^3 H]iloprost binding.

| SMILES | IC50 (washed human platelets) [µM] | Ki [1] [µM] |
| --- | --- | --- |
| O=c1n(CCCCCCCS(=O)(=O)O)c(-c2ccccc2)c(-c2ccccc2)n1-c1ccccc1 [Example 1, Sodium 7(3,4,5-triphenyl-2-oxo-2,3-dihydroimidazol-1-yl)-heptanesulphonate] | 0.25 | 8 |
| CCOP(=O)(CCCCCCCn1c(-c2ccccc2)c(-c2ccccc2)n(-c2ccccc2)c1=O)OCC [Example 2, Diethyl 7-(3,4,5-triphenyl-2-oxo-2,3-dihydroimidazol-1-yl)heptanephosphonate] | 5.5 | 30 |
| CCOP(C)(=O)CCCCCCCn1c(-c2ccccc2)c(-c2ccccc2)n(-c2ccccc2)c1=O (centres unmarked) [Example 4, Ethyl 7-(3,4,5-triphenyl-2-oxo-2,3-dihydroimidazol-1-yl)methylphosphinate] | 21 | 19 |
| O=c1n(CCCCCCCP(=O)(O)O)c(-c2ccccc2)c(-c2ccccc2)n1-c1ccccc1 [Example 3, 7-(3,4,5-Triphenyl-2-oxo-2,3-dihydroimidazol-1-yl)-heptanephosphonic acid] | 43 | 1.29 |

Source: patent US5338752A, “Substituted 2-imidazolone derivatives, their preparation and pharmaceutical compositions” (SK&F Laboratories Ltd., priority 1990, dated 1994)
